Reference: paper PMC10972746, “Substrate-induced condensation activates plant TIR domain proteins” (Nature, 2024)
Substitutions are numbered along the chain they refer to.

Experiments:
TX14–GFP [1] = target: T1, TX14–GFP (Arabidopsis thaliana, UniProt F4ISS7); assay: ATP-induced phase separation, confocal microscopy; conditions: 10 uM protein, 25 °C, 30 min; indirect read-out of binding
T1 construct: gene At2g32140; residues 1-351, GFP-tagged, pET-MBP-mGFP vector, E. coli BL21(DE3)
T1 sequence (F4ISS7 1-351): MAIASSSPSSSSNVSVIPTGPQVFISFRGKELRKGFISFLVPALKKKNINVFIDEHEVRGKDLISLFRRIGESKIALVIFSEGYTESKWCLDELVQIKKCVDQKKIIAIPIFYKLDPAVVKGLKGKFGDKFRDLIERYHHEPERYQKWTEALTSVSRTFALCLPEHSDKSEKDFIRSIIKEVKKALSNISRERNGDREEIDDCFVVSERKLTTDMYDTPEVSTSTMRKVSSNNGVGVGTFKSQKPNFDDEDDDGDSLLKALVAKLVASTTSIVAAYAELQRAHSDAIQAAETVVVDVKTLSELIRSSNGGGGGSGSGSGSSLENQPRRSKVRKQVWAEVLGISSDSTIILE

RPP1-TIR–GFP (RPP1-TIR) [2] = target: T2, RPP1-TIR–GFP (RPP1-TIR) (Arabidopsis thaliana, UniProt Q9ZSN5); assay: ATP-induced phase separation, confocal microscopy and turbidity; conditions: 1 mM ATP, 25 uM protein, 5% PEG 3,350, pH 8.0, 25 °C, 30 min; indirect read-out of binding
T2 construct: TIR domain residues 1-254, GFP-tagged, pET-MBP-mGFP vector, E. coli BL21(DE3); an untagged 60-254 form (GST cut, Sf21) was also made
T2 sequence (Q9ZSN5 1-254): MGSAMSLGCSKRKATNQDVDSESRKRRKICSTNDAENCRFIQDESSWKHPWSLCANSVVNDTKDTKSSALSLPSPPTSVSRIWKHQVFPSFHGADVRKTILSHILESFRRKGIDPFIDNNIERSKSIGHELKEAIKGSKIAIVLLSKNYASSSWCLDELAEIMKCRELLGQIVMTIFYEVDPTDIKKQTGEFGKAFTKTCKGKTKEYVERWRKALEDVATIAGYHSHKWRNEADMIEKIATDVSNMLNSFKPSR

RBA1–GFP [3] = target: T3, RBA1–GFP (Arabidopsis thaliana, UniProt F4HT77); assay: ATP-induced phase separation, confocal microscopy; conditions: 10 uM protein, 25 °C, 30 min; indirect read-out of binding
T3 construct: residues 1-191, GFP-tagged, pET-MBP-mGFP vector, E. coli BL21(DE3)
T3 sequence (F4HT77 1-191): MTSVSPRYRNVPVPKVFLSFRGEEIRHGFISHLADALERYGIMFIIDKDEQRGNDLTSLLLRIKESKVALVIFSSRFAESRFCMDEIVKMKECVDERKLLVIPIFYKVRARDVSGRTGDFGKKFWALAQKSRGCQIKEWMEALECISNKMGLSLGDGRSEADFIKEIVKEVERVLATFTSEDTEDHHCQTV

RPP1-TIR–GFP (RPP1-TIR) [4] = target: T2, RPP1-TIR–GFP (RPP1-TIR); assay: NADase assay, HPLC at […] nm; NAD+-induced phase separation by confocal microscopy; assay type: biochemical; conditions: 100 uM NAD+, 10 mM MgCl2, pH 8.0, 25 °C, 16 h; droplets: 1 mM NAD+, 25 uM protein, 5% PEG 3,350
TX14–GFP [5] = target: T4, TX14–GFP (Arabidopsis thaliana, UniProt F4ISS7, S38D); assay: NADase assay, HPLC at […] nm; assay type: biochemical; conditions: 100 uM NAD+, 10 mM MgCl2, pH 8.0, 25 °C, 16 h; 40 uM protein
T4 construct: gene At2g32140; residues 1-351, GFP-tagged, pET-MBP-mGFP vector, E. coli BL21(DE3)
T4 sequence (F4ISS7 1-351 S38D): T1 sequence (F4ISS7 1-351) with S38D

RBA1–GFP [6] = target: T3, RBA1–GFP; assay: NADase assay, HPLC at […] nm; NAD+-induced phase separation by confocal microscopy; assay type: biochemical; conditions: 100 uM NAD+, 10 mM MgCl2, pH 8.0, 25 °C, 16 h; condensates: 10 uM protein, NAD+ 0.2 mM
TX14–GFP [7] = target: T1, TX14–GFP; assay: as above; assay type: biochemical; conditions: 100 uM NAD+, 10 mM MgCl2, pH 8.0, 25 °C, 16 h; condensates: 10 uM protein, NAD+ 0.2 mM
TX14–GFP [8] = target: T5, TX14–GFP (Arabidopsis thaliana, UniProt F4ISS7, E57A/V58A/R59A/G60A/K61A/D62A); assay: NADase assay, HPLC at […] nm; assay type: biochemical; conditions: 100 uM NAD+, 10 mM MgCl2, pH 8.0, 25 °C, 16 h
T5 construct: gene At2g32140; residues 1-351, GFP-tagged, pET-MBP-mGFP vector, E. coli BL21(DE3)
T5 sequence (F4ISS7 1-351 E57A/V58A/R59A/G60A/K61A/D62A): T1 sequence (F4ISS7 1-351) with E57A, V58A, R59A, G60A, K61A, D62A

| SMILES | ATP-induced phase separation, confocal microscopy (TX14–GFP [1]) | ATP-induced phase separation, confocal microscopy and turbidity (RPP1-TIR–GFP (RPP1-TIR) [2]) | ATP-induced phase separation, confocal microscopy (RBA1–GFP [3]) | NADase assay, HPLC at 260 nm; NAD+-induced phase separation by confocal microsco (RPP1-TIR–GFP (RPP1-TIR) [4]) | relative NADase activity (TX14–GFP [5]) | NADase assay, HPLC at 260 nm; NAD+-induced phase separation by confocal microsco (RBA1–GFP [6]) | NADase assay, HPLC at 260 nm; NAD+-induced phase separation by confocal microsco (TX14–GFP [7]) | relative NADase activity (TX14–GFP [8]) |
| --- | --- | --- | --- | --- | --- | --- | --- | --- |
| Nc1ncnc2c1ncn2[C@@H]1O[C@H](COP(=O)(O)OP(=O)(O)OP(=O)(O)O)[C@@H](O)[C@H]1O [ATP] | ATP and NAD^+/ATP induced phase separation of the TIR domain protein RBA1 and TX14 | ATP induced phase separation of the RPP1-TIR–GFP protein | ATP and NAD^+/ATP induced phase separation of the TIR domain protein RBA1 and TX14 |  |  |  |  |  |
| NC(=O)c1ccc[n+]([C@@H]2O[C@H](COP(=O)(O)OP(=O)(O)OC[C@H]3O[C@@H](n4cnc5c(N)ncnc54)[C@H](O)[C@@H]3O)[C@@H](O)[C@H]2O)c1 [NAD^+] |  |  |  | wild-type RPP1-TIR, RBA1 and TX14 proteins nearly completely consumed the NAD^+ substrate | the mutations of the AE interface impaired the NADase activity of these TIR domain proteins | wild-type RPP1-TIR, RBA1 and TX14 proteins nearly completely consumed the NAD^+ substrate | wild-type RPP1-TIR, RBA1 and TX14 proteins nearly completely consumed the NAD^+ substrate | NAD^+-hydrolysing activity was significantly reduced in the corresponding BB-loop mutant proteins |
